Literature values as cited in patent publication US20110034442A1, “Use and Methods of Use for an Antagonist of the Serotin3 Receptor (5-HT3) and a Selective Modulator of Chloride Channels for the Treatment of Addiction to or Dependence on Medicines/Drugs or Nervous System Disorders” (priority 2007, published 2011).
Counter-ions that a name gives are not always drawn. Like-named read-outs stand apart in the source and are kept apart here.

Assays:
mice [1] = conditions: 0.1 and 1 mg/kg PO
mice [2] = tested on: mice
rats [3] = tested on: rats
early-onset alcoholism = conditions: 16 microg/kg twice daily; early-onset compared with late-onset alcoholism
[4] = tested on: adolescents who had alcohol dependence; conditions: 4 microg/kg b.i.d.
[5] = tested on: alcohol dependent subjects; conditions: 4 microg/kg b.i.d.
[6] = not given; remark: listed apart in the source
[7] = tested on: cocaine-dependent men and women
[8] = not given; remark: listed apart in the source
healthy human volunteers = conditions: pretreatment 0.15 mg/kg i.v.; oral D-amphetamine 0.5 mg/kg; subjects with robust responses
Wistar rats = conditions: 0.1, 0.5, 1, 2 mg/kg intra-peritoneally, 30 minutes prior to d-amphetamine
[9] = pre-treatment 12 mg orally over 24 h; amphetamine 15 mg orally
healthy males = conditions: pretreatment, nine healthy males
5-HT3 receptors = molecular target: T1, 5-HT3 receptors (Homo sapiens, UniProt P46098); conditions: in vivo
T1 sequence (P46098 24-478): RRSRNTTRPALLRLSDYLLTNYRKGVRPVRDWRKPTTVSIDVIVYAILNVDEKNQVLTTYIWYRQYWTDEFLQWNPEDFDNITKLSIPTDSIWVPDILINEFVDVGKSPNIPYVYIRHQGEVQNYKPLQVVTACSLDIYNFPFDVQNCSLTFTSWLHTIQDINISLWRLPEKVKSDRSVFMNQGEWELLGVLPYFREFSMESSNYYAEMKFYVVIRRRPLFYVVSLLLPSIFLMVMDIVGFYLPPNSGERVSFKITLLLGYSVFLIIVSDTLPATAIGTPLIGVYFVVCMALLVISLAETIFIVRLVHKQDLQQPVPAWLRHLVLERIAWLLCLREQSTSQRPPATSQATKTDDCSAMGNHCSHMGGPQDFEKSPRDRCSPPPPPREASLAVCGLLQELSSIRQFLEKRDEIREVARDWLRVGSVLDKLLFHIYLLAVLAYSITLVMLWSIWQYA

[10] = in vivo
[11] = in vivo; remark: listed apart in the source
K+-evoked [3H]ACh efflux = conditions: slices from rat entorhinal cortex preloaded with [3H]choline
[12] = flumazenil 10 mg/kg, ondansetron 0.3 mg/kg, R(−)-alpha-metylhistamine 10 mg/kg
[13] = in vivo; remark: listed apart in the source
[14] = pH 7.4
[15] = tested on: alpha(4)-subunit gene expression; conditions: ethanol withdrawal
rat = conditions: elevated plus maze
[16] = tested on: alcohol-dependent subjects; conditions: 15 alcohol-dependent subjects
rats [17] = conditions: rats receiving combined cocaine-diazepam compared to cocaine alone or diazepam alone
acetylcholine release = conditions: GABA(A) receptor antagonist given with ondansetron; rat frontal cortex
[18] = in contrast to naltrexone

In the case of Cc1nccn1CC1CCc2c(c3ccccc3n2C)C1=O (racemic) [ondansetron, (±)1,2,3,9-tetrahydro-9-methyl-3-[(2-methyl-1H-imidazol-1-yl)methyl]-4H-carbazol-4-one, monohydrochlororide, dehydrate], the “solubility in water and normal saline” value (racemic form, water and normal saline) is given as “soluble”, the “number of shocks taken” value (mice [1]) is given as “increased” and the “anxiolytic action compared to naive mice” value (mice [2]; 0.01, 0.1 and 1 mg/kg i.p.) is given as “significant anxiolytic action”. The “potency compared to diazepam” value (mice [2]; diazepam 1 mg/kg) was “less potent”, the “changes of the self-stimulation” value (male rats) was “did not cause any substantial changes” and the “anxiolytic action during withdrawal from chronic chlordiazepoxide” value (rats [3]; rats (Rezazadeh 1992)) was “mixed results”. For the same compound, the “efficacy in reversing various aspects of benzodiazepine withdrawal” value (rats [3]; rats, three tests, flumazenil given during chronic chlordiazepoxide (Prather 1993)) was “Inconsistent results”, the “alleviation of overall mood disturbance, fatigue, vigor, confusion/bewilderment and depression” value (early-onset alcoholism) was “greater therapeutic efficacy” and the “craving, Adolescent Obsessive-Compulsive Drinking Scale” value [4] was “reduction”. The drinks per day ([4]; 8 weeks) was “significant decrease”, the safety and tolerability ([4]; oral, 8 weeks, 12 adolescents) was “safe and well tolerated” and the overall craving ([5]; early-onset alcoholics) was “reduced overall craving significantly”. The overall craving ([5]; late-onset alcoholics, compared with placebo) was “not late-onset alcoholics”, the “cocaine intake the following day” value ([6]; administered 30 min before the cocaine session) was “no effect” and the “cocaine self-administration the following day” value ([6]; given 3.5 h after intravenous cocaine self-administration) was “attenuate self-administration the following day”. The “cocaine self-administration and sensitization” value ([6]; given after each second cocaine regimen dose or during the second withdrawal period) was “inhibited”, the “tolerability, adverse events” value ([7]; 0.25 mg, 1.0 mg, or 4.0 mg twice daily, 10 weeks) was “well tolerated, causing no serious adverse events” and the “dropout rate among all treatment groups” value ([7]; 4.0 mg twice daily) was “lowest dropout rate”. For the same compound, the “percentage of participants with a cocaine-free week compared with the placebo group” value ([7]; 4.0 mg twice daily, p=0.02) was “greater rate of improvement”, the “expression of sensitization and tolerance” value ([8]; administered during withdrawal from intermittent and continuous cocaine) was “blockade of the expression of sensitization and tolerance” and the “development of behavioral tolerance” value ([8]; continuous cocaine group) was “attenuated the development of behavioral tolerance”. For the same compound, the development of sensitization ([8]; daily injections with cocaine, inverted U-shape dose-response curve) was “significantly blocked the development of sensitization”, the “subsequent behavioral response to cocaine” value ([8]; daily injections, saline control subjects) was “no consistent or significant effect” and the “activation-euphoria responses to D-amphetamine” value (healthy human volunteers) was “attenuated responses”. The average stereotypic score (Wistar rats) was “decreased”, the “mean number of head dippings and crossings in the hole board test” value (Wistar rats) was “significantly decreased” and the “amphetamine-induced decrease in self-ratings of hunger” value [9] was “significantly attenuated”. For the same compound, the “effects of amphetamine on blood pressure or psychomotor performance tests” value (healthy males) was “not on blood pressure or psychomotor performance tests”, the “effects of amphetamine on hunger and subjective state” value (healthy males) was “attenuated” and the “antagonism of the effects of amphetamine” value (5-HT3 receptors) was “did not antagonize the effects of amphetamine”. The “increased behavioral suppression following withdrawal from ethanol, nicotine and cocaine” value [10] was “highly effective inhibitor”, the “ensuing facilitation of self-stimulation after high-dose nicotine” value [11] was “not the ensuing facilitation” and the “initial depression of self-stimulation by high-dose nicotine” value [11] was “reduced the initial depression”. The self-stimulation [11] was “no effect”, the “K+-evoked [3H]ACh efflux” value (K+-evoked [3H]ACh efflux) was “concentration-dependent increase” and the “attenuation of scopolamine-induced deficits” value (“attenuation” for short) [12] was “neither flumazenil 10 mg/kg, ondansetron 0.3 mg/kg nor R(−)-alpha-metylhistamine 10 mg/kg attenuated”.
For CN1[C@@H]2CC[C@H]1C[C@@H](OC(=O)c1cc(Cl)cc(Cl)c1)C2 [MDL 72222], the “K+-evoked [3H]ACh efflux” value (K+-evoked [3H]ACh efflux) is listed as “concentration-dependent increase”.
In the case of C[C@@H](N)Cc1c[nH]cn1 [R(−)-alpha-metylhistamine], the “attenuation” value [12] is given as “neither flumazenil 10 mg/kg, ondansetron 0.3 mg/kg nor R(−)-alpha-metylhistamine 10 mg/kg attenuated”.
For O=Cc1c(N2CCN(Cc3ccc4c(c3)OCO4)CC2)[nH]c2ccccc12 [VA21B7, 3-[2-(4′-piperonylpiperazinyl)indolyl]carboxaldehyde], the “release of suppressed behavior” value [13] is listed as “able to release suppressed behavior”.
For CCOC(=O)c1ncn2c1CN(C)C(=O)c1cc(F)ccc1-2 [flumazenil, ethyl 8-fluoro-5,6-dihydro-5-methyl-6-oxo-4H-imidazo[1,5-a](1,4)benzodiazepine-3-carboxylate], the “octanol:buffer partition coefficient” value [14] is listed as 14 to 1, the “solubility in acidic aqueous solutions” value (acidic aqueous solutions) is listed as “slightly soluble” and the solubility in water (water) is listed as “insoluble”. For the same compound, the “changes of the self-stimulation” value (male rats) was “did not cause any substantial changes”, the “up-regulation of alpha(4)-subunit gene expression” value [15] was “selectively prevented the up-regulation” and the anxiolytic effects (rat) was “did not produce any anxiolytic effects”. The “decrease in open arm entries produced by withdrawal from ethanol treatment” value (rat) was “blocked these changes”, the “anxiolytic or anxiogenic effect” value [16] was “neither anxiolytic nor anxiogenic” and the “seizures and incidence of death” value (rats [17]) was “unmask seizures and increase the incidence of death”. The “peak increase of acetylcholine release over basal levels” value (acetylcholine release) was 259%, the “K+-evoked [3H]ACh efflux” value (K+-evoked [3H]ACh efflux) was “enhanced” and the “attenuation” value [12] was “neither flumazenil 10 mg/kg, ondansetron 0.3 mg/kg nor R(−)-alpha-metylhistamine 10 mg/kg attenuated”.
For CN1C2CCCC1CC(NC(=O)c1nn(C)c3ccccc13)C2 (centres unmarked) [granisetron], the “K+-evoked [3H]ACh efflux” value (K+-evoked [3H]ACh efflux) is listed as “concentration-dependent increase”.
For C=C1CC[C@@]2(O)[C@H]3Cc4ccc(O)c5c4[C@@]2(CCN3CC2CC2)[C@H]1O5 [nalmefene, 17(cyclopropylmethyl)-4,5-alpha-epoxy-6-methylenemorphinan-3,14-diol,hydrochloride salt], the hepatocellular injury [18] is given as “does not cause hepatocellular injury”.
